Values belong to the molecule of their own block, whether it stands above or below them.
Experiments:
Experiment in all cases: radiometric filter-binding kinase assay
ABL1 (human) = ABL1 (human) (UniProt P00519)
CDK9 CCNT1 (human) = CDK9 CCNT1 (human) (UniProt P50750+O60563)
CSNK1G2 (human) = CSNK1G2 (human) (UniProt P78368)
DDR2 (human) = DDR2 (human) (UniProt Q16832)
EIF2AK3 (human) = EIF2AK3 (human) (UniProt Q9NZJ5)
IRAK1 (human) = IRAK1 (human) (UniProt P51617)
MAP4K3 (human) = MAP4K3 (human) (UniProt Q8IVH8)
MAP4K5 (human) = MAP4K5 (human) (UniProt Q9Y4K4)
MAPK7 (human) = MAPK7 (human) (UniProt Q13164)
[1] = test system: OXSR1 (human), O95747 [T185E]
PDGFRA (human) = PDGFRA (human) (UniProt P16234)
PLK1 (human) = PLK1 (human) (UniProt P53350)
[2] = target: PRKAA1 PRKAB2 PRKAG1 (human) (UniProt O43741+Q13131+P54619)
PRKCG (human) = PRKCG (human) (UniProt P05129)
PTK6 (human) = PTK6 (human) (UniProt Q13882)
SIK2 (human) = SIK2 (human) (UniProt Q9H0K1)
SIK3 (human) = SIK3 (human) (UniProt Q9Y2K2)
STK16 (human) = STK16 (human) (UniProt O75716)
STK24 (human) = STK24 (human) (UniProt Q9Y6E0)
STK33 (human) = STK33 (human) (UniProt Q9BYT3)
TEK (human) = TEK (human) (UniProt Q02763)
TESK1 (human) = TESK1 (human) (UniProt Q15569)
[3] = test system: TGFBR1 (human), P36897 [T204D]
TLK1 (human) = TLK1 (human) (UniProt Q9UKI8)
TSSK1B (human) = TSSK1B (human) (UniProt Q9BXA7)
TTBK1 (human) = TTBK1 (human) (UniProt Q5TCY1)
TTBK2 (human) = TTBK2 (human) (UniProt Q6IQ55)
ULK1 (human) = ULK1 (human) (UniProt O75385)
ULK2 (human) = ULK2 (human) (UniProt Q8IYT8)
WNK1 (human) = WNK1 (human) (UniProt Q9H4A3)
ZAP70 (human) = ZAP70 (human) (UniProt P43403)

Sequence of STK24 (human) (Q9Y6E0 whole entry, looked up): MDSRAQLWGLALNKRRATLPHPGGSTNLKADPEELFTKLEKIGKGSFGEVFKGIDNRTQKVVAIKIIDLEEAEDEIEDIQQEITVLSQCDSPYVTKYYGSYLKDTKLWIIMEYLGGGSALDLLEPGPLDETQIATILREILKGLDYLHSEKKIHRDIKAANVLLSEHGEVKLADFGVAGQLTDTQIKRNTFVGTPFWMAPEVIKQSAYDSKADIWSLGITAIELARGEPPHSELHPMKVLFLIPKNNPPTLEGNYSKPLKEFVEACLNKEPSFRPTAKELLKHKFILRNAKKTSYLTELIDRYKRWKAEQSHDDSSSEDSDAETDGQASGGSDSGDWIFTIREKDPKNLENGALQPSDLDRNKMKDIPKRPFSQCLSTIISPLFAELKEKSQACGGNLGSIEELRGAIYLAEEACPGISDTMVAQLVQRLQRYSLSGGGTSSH
Sequence of TTBK1 (human) (Q5TCY1 whole entry, looked up): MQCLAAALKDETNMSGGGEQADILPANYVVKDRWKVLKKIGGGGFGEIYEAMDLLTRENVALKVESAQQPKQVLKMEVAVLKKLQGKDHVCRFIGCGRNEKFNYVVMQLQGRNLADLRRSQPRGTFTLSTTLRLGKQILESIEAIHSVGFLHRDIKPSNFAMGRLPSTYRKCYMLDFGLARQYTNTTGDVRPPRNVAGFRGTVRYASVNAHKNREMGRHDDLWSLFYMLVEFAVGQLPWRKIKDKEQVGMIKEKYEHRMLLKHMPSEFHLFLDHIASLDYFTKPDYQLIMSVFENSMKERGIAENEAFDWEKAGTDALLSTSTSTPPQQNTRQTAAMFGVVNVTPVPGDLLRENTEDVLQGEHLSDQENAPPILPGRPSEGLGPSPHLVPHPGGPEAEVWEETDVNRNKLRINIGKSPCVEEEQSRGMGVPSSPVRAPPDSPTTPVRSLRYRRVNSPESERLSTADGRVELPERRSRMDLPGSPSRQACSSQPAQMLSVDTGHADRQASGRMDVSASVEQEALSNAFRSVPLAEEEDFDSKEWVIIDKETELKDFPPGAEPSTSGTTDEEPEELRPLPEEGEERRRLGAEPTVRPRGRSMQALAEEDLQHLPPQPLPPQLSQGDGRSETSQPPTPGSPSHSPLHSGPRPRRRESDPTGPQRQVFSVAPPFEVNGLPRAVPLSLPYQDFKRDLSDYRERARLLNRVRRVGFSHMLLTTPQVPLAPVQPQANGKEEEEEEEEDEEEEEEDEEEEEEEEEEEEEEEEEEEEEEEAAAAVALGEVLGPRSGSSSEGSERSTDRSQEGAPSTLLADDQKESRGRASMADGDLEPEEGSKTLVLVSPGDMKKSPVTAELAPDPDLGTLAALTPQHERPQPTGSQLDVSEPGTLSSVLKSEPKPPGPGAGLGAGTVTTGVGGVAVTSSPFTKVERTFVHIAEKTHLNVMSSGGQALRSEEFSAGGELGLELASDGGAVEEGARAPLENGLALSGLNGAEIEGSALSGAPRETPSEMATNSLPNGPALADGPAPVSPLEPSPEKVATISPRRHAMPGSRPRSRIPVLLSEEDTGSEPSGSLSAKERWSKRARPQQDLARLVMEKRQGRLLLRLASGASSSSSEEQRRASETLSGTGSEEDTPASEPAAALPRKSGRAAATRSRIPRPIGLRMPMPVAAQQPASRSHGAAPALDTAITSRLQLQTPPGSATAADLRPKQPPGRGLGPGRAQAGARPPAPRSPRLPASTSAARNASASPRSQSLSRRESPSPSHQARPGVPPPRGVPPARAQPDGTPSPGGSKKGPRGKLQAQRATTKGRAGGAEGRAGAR
Sequence of STK16 (human) (O75716 whole entry, looked up): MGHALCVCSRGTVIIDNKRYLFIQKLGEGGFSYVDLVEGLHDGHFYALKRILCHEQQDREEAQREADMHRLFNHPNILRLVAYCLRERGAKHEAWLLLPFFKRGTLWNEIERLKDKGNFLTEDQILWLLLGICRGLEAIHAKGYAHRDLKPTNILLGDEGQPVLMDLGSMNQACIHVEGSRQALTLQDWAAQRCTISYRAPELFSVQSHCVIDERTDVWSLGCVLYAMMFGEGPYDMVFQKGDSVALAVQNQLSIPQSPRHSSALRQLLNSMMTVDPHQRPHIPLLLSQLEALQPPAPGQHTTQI
Sequence of STK33 (human) (Q9BYT3 whole entry, looked up): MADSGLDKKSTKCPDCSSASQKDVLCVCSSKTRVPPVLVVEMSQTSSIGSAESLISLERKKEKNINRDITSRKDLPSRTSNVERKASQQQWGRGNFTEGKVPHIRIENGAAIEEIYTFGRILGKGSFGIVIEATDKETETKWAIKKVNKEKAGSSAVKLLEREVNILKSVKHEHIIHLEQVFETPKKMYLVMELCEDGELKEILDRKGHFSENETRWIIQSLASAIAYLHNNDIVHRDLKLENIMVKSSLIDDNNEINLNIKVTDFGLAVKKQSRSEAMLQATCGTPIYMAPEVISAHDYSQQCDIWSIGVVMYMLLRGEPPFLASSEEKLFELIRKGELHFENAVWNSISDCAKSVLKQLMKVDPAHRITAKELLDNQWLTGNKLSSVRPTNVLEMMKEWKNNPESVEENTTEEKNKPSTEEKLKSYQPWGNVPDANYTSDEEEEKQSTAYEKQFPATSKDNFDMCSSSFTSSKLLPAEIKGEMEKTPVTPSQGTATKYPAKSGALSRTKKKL
Sequence of MAP4K5 (human) (Q9Y4K4 whole entry, looked up): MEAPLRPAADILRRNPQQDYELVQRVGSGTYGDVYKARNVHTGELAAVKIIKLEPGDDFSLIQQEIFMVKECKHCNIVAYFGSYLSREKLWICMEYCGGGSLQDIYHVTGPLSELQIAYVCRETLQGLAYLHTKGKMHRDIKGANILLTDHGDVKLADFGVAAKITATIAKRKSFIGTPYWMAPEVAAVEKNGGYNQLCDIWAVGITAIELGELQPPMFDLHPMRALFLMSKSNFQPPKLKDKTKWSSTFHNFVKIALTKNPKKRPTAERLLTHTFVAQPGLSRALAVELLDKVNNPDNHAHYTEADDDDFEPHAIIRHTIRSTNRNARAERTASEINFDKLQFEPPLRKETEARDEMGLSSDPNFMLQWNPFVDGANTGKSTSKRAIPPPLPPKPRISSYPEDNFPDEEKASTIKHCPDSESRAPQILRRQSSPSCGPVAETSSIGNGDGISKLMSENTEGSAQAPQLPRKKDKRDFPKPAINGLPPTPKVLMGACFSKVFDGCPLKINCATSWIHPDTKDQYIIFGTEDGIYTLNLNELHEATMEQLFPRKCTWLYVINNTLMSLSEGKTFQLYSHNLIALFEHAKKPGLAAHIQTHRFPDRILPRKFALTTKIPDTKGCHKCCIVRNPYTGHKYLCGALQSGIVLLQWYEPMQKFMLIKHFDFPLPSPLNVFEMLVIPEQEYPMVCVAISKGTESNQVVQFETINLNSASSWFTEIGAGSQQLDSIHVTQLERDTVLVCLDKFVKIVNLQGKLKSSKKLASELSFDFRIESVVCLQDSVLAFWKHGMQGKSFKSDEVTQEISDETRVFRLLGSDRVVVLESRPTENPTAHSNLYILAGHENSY
Sequence of ABL1 (human) (P00519 whole entry, looked up): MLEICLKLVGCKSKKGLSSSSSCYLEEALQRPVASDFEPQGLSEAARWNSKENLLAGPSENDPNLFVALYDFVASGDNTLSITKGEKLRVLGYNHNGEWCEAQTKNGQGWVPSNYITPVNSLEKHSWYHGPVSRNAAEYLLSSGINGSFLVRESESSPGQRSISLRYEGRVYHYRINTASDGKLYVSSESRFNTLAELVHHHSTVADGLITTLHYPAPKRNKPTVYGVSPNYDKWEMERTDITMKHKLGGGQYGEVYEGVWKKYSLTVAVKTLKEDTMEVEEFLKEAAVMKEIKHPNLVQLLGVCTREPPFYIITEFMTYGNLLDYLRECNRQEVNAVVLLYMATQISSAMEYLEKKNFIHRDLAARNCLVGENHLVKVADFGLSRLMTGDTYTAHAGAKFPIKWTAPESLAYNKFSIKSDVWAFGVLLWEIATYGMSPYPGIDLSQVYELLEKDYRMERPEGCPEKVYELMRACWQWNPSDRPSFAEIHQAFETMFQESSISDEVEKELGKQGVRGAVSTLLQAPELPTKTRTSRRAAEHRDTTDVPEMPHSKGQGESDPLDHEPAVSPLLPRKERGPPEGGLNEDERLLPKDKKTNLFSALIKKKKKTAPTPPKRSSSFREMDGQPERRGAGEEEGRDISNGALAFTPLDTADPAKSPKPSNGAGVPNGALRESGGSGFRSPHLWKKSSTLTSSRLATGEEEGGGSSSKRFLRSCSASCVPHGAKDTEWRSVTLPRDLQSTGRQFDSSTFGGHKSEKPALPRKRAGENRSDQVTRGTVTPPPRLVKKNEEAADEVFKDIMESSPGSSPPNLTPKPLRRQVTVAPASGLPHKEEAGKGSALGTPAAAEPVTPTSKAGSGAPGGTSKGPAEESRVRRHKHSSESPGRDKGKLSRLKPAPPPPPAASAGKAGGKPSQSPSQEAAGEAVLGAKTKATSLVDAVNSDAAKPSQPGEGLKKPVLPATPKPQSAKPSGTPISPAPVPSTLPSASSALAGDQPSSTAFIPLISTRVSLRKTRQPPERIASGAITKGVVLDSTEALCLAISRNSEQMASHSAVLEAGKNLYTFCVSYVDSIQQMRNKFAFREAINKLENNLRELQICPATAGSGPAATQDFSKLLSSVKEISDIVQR
Sequence of TGFBR1 (human), P36897 [T204D] (P36897 whole entry T204D, looked up): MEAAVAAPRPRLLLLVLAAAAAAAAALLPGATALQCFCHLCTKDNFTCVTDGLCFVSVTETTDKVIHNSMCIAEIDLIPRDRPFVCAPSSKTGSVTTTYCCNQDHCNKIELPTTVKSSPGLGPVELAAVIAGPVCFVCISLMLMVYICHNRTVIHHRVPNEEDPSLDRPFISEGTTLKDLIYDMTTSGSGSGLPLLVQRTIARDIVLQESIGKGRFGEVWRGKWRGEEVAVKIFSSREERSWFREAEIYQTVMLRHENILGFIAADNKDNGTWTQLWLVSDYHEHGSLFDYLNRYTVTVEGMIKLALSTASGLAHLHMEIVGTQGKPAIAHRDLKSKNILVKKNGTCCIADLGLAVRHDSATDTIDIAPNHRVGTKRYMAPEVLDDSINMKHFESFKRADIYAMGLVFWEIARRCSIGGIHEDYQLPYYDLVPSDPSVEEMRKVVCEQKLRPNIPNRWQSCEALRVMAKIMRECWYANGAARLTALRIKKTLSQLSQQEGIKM

residual activity (ABL1 (human); compound 0.1 µM): 102% | residual activity (ABL1 (human); compound 1.0 µM): 109% | residual activity (ABL1 (human); compound 10.0 µM): 96% | residual activity (CDK9 CCNT1 (human); compound 0.1 µM): 103% | residual activity (CDK9 CCNT1 (human); compound 1.0 µM): 115% | residual activity (CDK9 CCNT1 (human); compound 10.0 µM): 103% | residual activity (CSNK1G2 (human); compound 0.1 µM): 101% | residual activity (CSNK1G2 (human); compound 1.0 µM): 92% | residual activity (CSNK1G2 (human); compound 10.0 µM): 92% | residual activity (DDR2 (human); compound 0.1 µM): 108% | residual activity (DDR2 (human); compound 1.0 µM): 97% | residual activity (DDR2 (human); compound 10.0 µM): 104% | residual activity (EIF2AK3 (human); compound 0.1 µM): 93% | residual activity (EIF2AK3 (human); compound 1.0 µM): 105% | residual activity (EIF2AK3 (human); compound 10.0 µM): 94% | residual activity (IRAK1 (human); compound 0.1 µM): 99% | residual activity (IRAK1 (human); compound 1.0 µM): 103% | residual activity (IRAK1 (human); compound 10.0 µM): 75% | residual activity (MAP4K3 (human); compound 0.1 µM): 99% | residual activity (MAP4K3 (human); compound 10.0 µM): 66% | residual activity (MAP4K5 (human); compound 0.1 µM): 107% | residual activity (MAP4K5 (human); compound 1.0 µM): 103% | residual activity (MAP4K5 (human); compound 10.0 µM): 84% | residual activity (MAPK7 (human); compound 0.1 µM): 96% | residual activity (MAPK7 (human); compound 1.0 µM): 83% | residual activity (MAPK7 (human); compound 10.0 µM): 64% | residual activity ([1]; compound 0.1 µM): 107% | residual activity ([1]; compound 1.0 µM): 102% | residual activity ([1]; compound 10.0 µM): 97% | residual activity (PDGFRA (human); compound 0.1 µM): 120% | residual activity (PDGFRA (human); compound 1.0 µM): 101% | residual activity (PDGFRA (human); compound 10.0 µM): 99% | residual activity (PLK1 (human); compound 0.1 µM): 83% | residual activity (PLK1 (human); compound 1.0 µM): 60% | residual activity (PLK1 (human); compound 10.0 µM): 41% | residual activity ([2]; compound 0.1 µM): 115% | residual activity ([2]; compound 1.0 µM): 78% | residual activity ([2]; compound 10.0 µM): 34% | residual activity (PRKCG (human); compound 0.1 µM): 96% | residual activity (PRKCG (human); compound 1.0 µM): 80% | residual activity (PRKCG (human); compound 10.0 µM): 46% | residual activity (PTK6 (human); compound 0.1 µM): 91% | residual activity (PTK6 (human); compound 10.0 µM): 91% | residual activity (SIK2 (human); compound 0.1 µM): 97% | residual activity (SIK2 (human); compound 1.0 µM): 93% | residual activity (SIK2 (human); compound 10.0 µM): 95% | residual activity (SIK3 (human); compound 0.1 µM): 89% | residual activity (SIK3 (human); compound 1.0 µM): 94% | residual activity (SIK3 (human); compound 10.0 µM): 89% | residual activity (STK16 (human); compound 1.0 µM): 103% | residual activity (STK16 (human); compound 10.0 µM): 83% | residual activity (STK24 (human); compound 0.1 µM): 86% | residual activity (STK24 (human); compound 1.0 µM): 91% | residual activity (STK24 (human); compound 10.0 µM): 73% | residual activity (STK33 (human); compound 0.1 µM): 104% | residual activity (STK33 (human); compound 1.0 µM): 106% | residual activity (STK33 (human); compound 10.0 µM): 74% | residual activity (TEK (human); compound 1.0 µM): 116% | residual activity (TEK (human); compound 10.0 µM): 111% | residual activity (TESK1 (human); compound 0.1 µM): 103% | residual activity (TESK1 (human); compound 1.0 µM): 114% | residual activity (TESK1 (human); compound 10.0 µM): 104% | residual activity ([3]; compound 0.1 µM): 85% | residual activity ([3]; compound 1.0 µM): 90% | residual activity ([3]; compound 10.0 µM): 92% | residual activity (TLK1 (human); compound 0.1 µM): 92% | residual activity (TLK1 (human); compound 1.0 µM): 92% | residual activity (TLK1 (human); compound 10.0 µM): 88% | residual activity (TSSK1B (human); compound 0.1 µM): 88% | residual activity (TSSK1B (human); compound 10.0 µM): 42% | residual activity (TTBK1 (human); compound 0.1 µM): 104% | residual activity (TTBK1 (human); compound 1.0 µM): 100% | residual activity (TTBK1 (human); compound 10.0 µM): 91% | residual activity (TTBK2 (human); compound 0.1 µM): 91% | residual activity (TTBK2 (human); compound 1.0 µM): 95% | residual activity (TTBK2 (human); compound 10.0 µM): 101% | residual activity (ULK1 (human); compound 0.1 µM): 83% | residual activity (ULK1 (human); compound 1.0 µM): 74% | residual activity (ULK1 (human); compound 10.0 µM): 43% | residual activity (ULK2 (human); compound 0.1 µM): 93% | residual activity (ULK2 (human); compound 1.0 µM): 98% | residual activity (ULK2 (human); compound 10.0 µM): 73% | residual activity (WNK1 (human); compound 0.1 µM): 106% | residual activity (WNK1 (human); compound 1.0 µM): 102% | residual activity (WNK1 (human); compound 10.0 µM): 100% | residual activity (ZAP70 (human); compound 0.1 µM): 83% | residual activity (ZAP70 (human); compound 1.0 µM): 84% | residual activity (ZAP70 (human); compound 10.0 µM): 84%
Structure (SMILES): CCn1c(-c2nonc2N)nc2cncc(CNC3CCNCC3)c21

residual activity (ABL1 (human); compound 1.0 µM): 102% | residual activity (ABL1 (human); compound 10.0 µM): 106% | residual activity (CDK9 CCNT1 (human); compound 1.0 µM): 96% | residual activity (CDK9 CCNT1 (human); compound 10.0 µM): 90% | residual activity (CSNK1G2 (human); compound 1.0 µM): 91% | residual activity (CSNK1G2 (human); compound 10.0 µM): 90% | residual activity (DDR2 (human); compound 1.0 µM): 97% | residual activity (DDR2 (human); compound 10.0 µM): 98% | residual activity (EIF2AK3 (human); compound 1.0 µM): 99% | residual activity (EIF2AK3 (human); compound 10.0 µM): 80% | residual activity (IRAK1 (human); compound 1.0 µM): 100% | residual activity (IRAK1 (human); compound 10.0 µM): 93% | residual activity (MAP4K3 (human); compound 1.0 µM): 69% | residual activity (MAP4K3 (human); compound 10.0 µM): 21% | residual activity (MAP4K5 (human); compound 1.0 µM): 109% | residual activity (MAP4K5 (human); compound 10.0 µM): 90% | residual activity (MAPK7 (human); compound 1.0 µM): 65% | residual activity (MAPK7 (human); compound 10.0 µM): 32% | residual activity ([1]; compound 1.0 µM): 99% | residual activity ([1]; compound 10.0 µM): 54% | residual activity (PDGFRA (human); compound 1.0 µM): 91% | residual activity (PDGFRA (human); compound 10.0 µM): 61% | residual activity (PLK1 (human); compound 1.0 µM): 76% | residual activity (PLK1 (human); compound 10.0 µM): 39% | residual activity ([2]; compound 1.0 µM): 71% | residual activity ([2]; compound 10.0 µM): 29% | residual activity (PRKCG (human); compound 1.0 µM): 108% | residual activity (PRKCG (human); compound 10.0 µM): 95% | residual activity (PTK6 (human); compound 1.0 µM): 57% | residual activity (PTK6 (human); compound 10.0 µM): 15% | residual activity (SIK2 (human); compound 1.0 µM): 66% | residual activity (SIK2 (human); compound 10.0 µM): 21% | residual activity (SIK3 (human); compound 1.0 µM): 110% | residual activity (SIK3 (human); compound 10.0 µM): 88% | residual activity (STK16 (human); compound 1.0 µM): 97% | residual activity (STK16 (human); compound 10.0 µM): 96% | residual activity (STK24 (human); compound 1.0 µM): 97% | residual activity (STK24 (human); compound 10.0 µM): 81% | residual activity (STK33 (human); compound 1.0 µM): 39% | residual activity (STK33 (human); compound 10.0 µM): 22% | residual activity (TEK (human); compound 1.0 µM): 100% | residual activity (TEK (human); compound 10.0 µM): 85% | residual activity (TESK1 (human); compound 1.0 µM): 104% | residual activity (TESK1 (human); compound 10.0 µM): 98% | residual activity ([3]; compound 1.0 µM): 110% | residual activity ([3]; compound 10.0 µM): 102% | residual activity (TLK1 (human); compound 1.0 µM): 104% | residual activity (TLK1 (human); compound 10.0 µM): 101% | residual activity (TSSK1B (human); compound 1.0 µM): 12% | residual activity (TSSK1B (human); compound 10.0 µM): 3% | residual activity (TTBK1 (human); compound 1.0 µM): 100% | residual activity (TTBK1 (human); compound 10.0 µM): 84% | residual activity (TTBK2 (human); compound 1.0 µM): 95% | residual activity (TTBK2 (human); compound 10.0 µM): 74% | residual activity (ULK1 (human); compound 1.0 µM): 98% | residual activity (ULK1 (human); compound 10.0 µM): 47% | residual activity (ULK2 (human); compound 1.0 µM): 92% | residual activity (ULK2 (human); compound 10.0 µM): 61% | residual activity (WNK1 (human); compound 1.0 µM): 103% | residual activity (WNK1 (human); compound 10.0 µM): 104% | residual activity (ZAP70 (human); compound 1.0 µM): 102% | residual activity (ZAP70 (human); compound 10.0 µM): 79%
Structure (SMILES): CCNc1nc(Nc2cc(F)c(C(=O)N3CCOCC3)cc2OC)ncc1C(F)(F)F

From the kinase profiling compilation of Christmann-Franck et al. (2016)
